Experimental data: patent publication US10703748B2, “Diazanaphthalen-3-yl carboxamides and preparation and use thereof” (Samumed, LLC, priority 2017, dated 2020)

Legend:
[1] = tested on: SW480 colon carcinoma cells; experiment: Cell viability assay (CellTiter-Glo); settings: Homo sapiens; for EC50: SW480, 96 h; for inhibition at 10 µM: SW480, read-out: percent inhibition at 10 μM
[2] = tested on: α-smooth muscle actin (aSMA) positive LL29 cells; experiment: Inhibition of the fibrotic process: αSMA staining in TGF-β1 treated LL29 fibroblasts from IPF patients; settings: Homo sapiens, Fibroblast; for EC50: 96 h; for inhibition at 10 µM: read-out: percentage in parentheses after EC50 >10
IL-6 = IL-6 inhibition in LPS-stimulated human peripheral blood mononuclear cells (HTRF); settings: Homo sapiens, PBMC; for EC50: 22 h; for inhibition at 10 µM: read-out: percentage in parentheses after EC50 >10
DYRK1A kinase = DYRK1A kinase (Homo sapiens, UniProt Q13627); experiment: DYRK1A kinase activity (Ser/Thr 18 peptide Z-lyte FRET assay); type: biochemical; settings: recombinant DYRK1A, 30 μM ATP, one hour at room temperature;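 note: kinase activity read as coumarin/fluorescein emission ratio after development step, with unphosphorylated and phosphorylated peptide forms setting 0% and 100% controls, values from dose-response curves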
GSK3β kinase = GSK3β kinase (Homo sapiens, UniProt P49841); experiment: GSK3β kinase activity (Ser/Thr 09 peptide Z-lyte FRET assay); type: biochemical; settings: recombinant kinase, 46 μM ATP, one hour at room temperature; read-out: EC50
Chain of GSK3β kinase (P49841 whole entry): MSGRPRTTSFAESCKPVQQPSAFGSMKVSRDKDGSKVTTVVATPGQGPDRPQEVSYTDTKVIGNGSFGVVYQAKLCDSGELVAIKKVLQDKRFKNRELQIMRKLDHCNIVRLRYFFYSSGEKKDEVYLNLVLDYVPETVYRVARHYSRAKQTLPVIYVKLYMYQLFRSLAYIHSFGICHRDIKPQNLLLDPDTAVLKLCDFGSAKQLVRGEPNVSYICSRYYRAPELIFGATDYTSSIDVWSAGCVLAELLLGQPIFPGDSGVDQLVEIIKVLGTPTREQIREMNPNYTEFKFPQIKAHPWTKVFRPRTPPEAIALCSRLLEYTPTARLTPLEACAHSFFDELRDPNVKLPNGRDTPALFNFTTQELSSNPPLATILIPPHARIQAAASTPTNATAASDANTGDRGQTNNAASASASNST

[3] = tested on: Wnt-responsive Sp5-Luc reporter in SW480 colon carcinoma cells; experiment: Screening assay for Wnt activity (Sp5-Luc reporter gene assay); settings: Homo sapiens; for EC50: SW480; for inhibition at 10 µM: SW480, read-out: percent inhibition at 10 μM

| SMILES | EC50 [1] | EC50 (IL-6) | EC50 (DYRK1A kinase) | EC50 (GSK3β kinase) | EC50 [3] | EC50 [2] | inhibition at 10 µM (IL-6) | inhibition at 10 µM [1] | inhibition at 10 µM [2] | inhibition at 10 µM [3] |
| --- | --- | --- | --- | --- | --- | --- | --- | --- | --- | --- |
| Cc1nnc(-c2cnc3cnc(NC(=O)c4ccnc(N5CCN(C)CC5)c4)cc3c2)s1 [Compound 3470, N-(3-(5-Methyl-1,3,4-thiadiazol-2-yl)-1,7-naphthyridin-6-yl)-2-(4-methylpiperazin-1-yl)isonicotinamide] | 3.96 µM | > 10 µM | 0.11 µM | > 10 µM | 5.48 µM | 3.23 µM | 9.4% |  |  |  |
| COC1CCN(CC(=O)Nc2cc3cc(-c4cn(C)nn4)ncc3cn2)CC1 [Compound 3985, 2-(4-Methoxypiperidin-1-yl)-N-(6-(1-methyl-1H-1,2,3-triazol-4-yl)-2,7-naphthyridin-3-yl)acetamide] | > 10 µM | > 10 µM | 0.751 µM | 1.24 µM | > 10 µM | 8.38 µM | 5.2% | 34.9% |  | 49.8% |
| CNC(=O)c1ccc(C(=O)Nc2cc3cc(-c4cn(C)nn4)ncc3cn2)cn1 [Compound 3999, N^2-Methyl-N^5-(6-(1-methyl-1H-1,2,3-triazol-4-yl)-2,7-naphthyridin-3-yl) pyridine-2,5-dicarboxamide] | > 10 µM | > 10 µM | 0.454 µM | > 10 µM | > 10 µM | > 10 µM | 4.1% | 27.3% | 34.6% | 22% |
| CN(C)C1CCN(c2cc(C(=O)Nc3cc4cc(-c5cn(C)nn5)ncc4cn3)ccn2)CC1 [Compound 4003, 2-(4-(Dimethylamino)piperidin-1-yl)-N-(6-(1-methyl-1H-1,2,3-triazol-4-yl)-2,7-naphthyridin-3-yl)isonicotinamide] | > 10 µM | > 10 µM | 0.056 µM | 1.72 µM | > 10 µM | > 10 µM | 3.7% | 50.4% | 24.6% | 34% |
| CN1CCCN(c2cc(C(=O)Nc3cc4cc(-c5cn(C)nn5)ncc4cn3)ccn2)CC1 [Compound 4006, 2-(4-Methyl-1,4-diazepan-1-yl)-N-(6-(1-methyl-1H-1,2,3-triazol-4-yl)-2,7-naphthyridin-3-yl)isonicotinamide] | 7.87 µM | > 10 µM | 0.056 µM | 1.47 µM | > 10 µM | > 10 µM | 8.9% |  | 5.2% | 37.7% |
| CC(C)Oc1ccc(C(=O)Nc2cc3cc(-c4cnc5n4CCNC5)ncc3cn2)cc1 [Compound 4150, 4-Isopropoxy-N-(6-(5,6,7,8-tetrahydroimidazo[1,2-a]pyrazin-3-yl)-2,7-naphthyridin-3-yl)benzamide] | > 10 µM | > 10 µM | 0.053 µM | 5.14 µM | 2.85 µM | 3.57 µM | 4.6% | 32.7% |  |  |
| CC(F)(F)CN1CCC(C(=O)Nc2cc3cc(-c4cnco4)ncc3cn2)CC1 [Compound 4167, 1-(2,2-Difluoropropyl)-N-(6-(oxazol-5-yl)-2,7-naphthyridin-3-yl)piperidine-4-carboxamide] | > 10 µM | > 10 µM | 3.2 µM | 0.127 µM | > 10 µM | > 10 µM | 4.9% | 11.9% | 43% | 8.9% |
| Cc1nnc(-c2cc3cc(NC(=O)CN4C5CCC4CC5)ncc3cn2)s1 [Compound 4353, 2-(7-Azabicyclo[2.2.1]heptan-7-yl)-N-(6-(5-methyl-1,3,4-thiadiazol-2-yl)-2,7-naphthyridin-3-yl)acetamide] | > 10 µM | > 10 µM | 0.529 µM | 2.45 µM | > 10 µM | > 10 µM | 8.5% | 4.1% | 26.4% | 2.1% |
| CN1CCN(c2cc(C(=O)Nc3cc4cc(-c5cncc(N)c5)ncc4cn3)ccn2)CC1 [Compound 4432, N-(6-(5-Aminopyridin-3-yl)-2,7-naphthyridin-3-yl)-2-(4-methylpiperazin-1-yl)isonicotinamide] | 2.03 µM | > 10 µM | 0.002 µM | > 10 µM | 2 µM | 1.72 µM | 1.4% |  |  |  |
| Cn1nnnc1-c1ccc2cnc(NC(=O)C3CCN(CCC(F)(F)F)CC3)nc2c1 [Compound 4574, N-(7-(1-Methyl-1H-tetrazol-5-yl)quinazolin-2-yl)-1-(3,3,3-trifluoropropyl) piperidine-4-carboxamide] | > 10 µM | > 10 µM | 1.41 µM | 0.665 µM | 3.87 µM | > 10 µM | 5.7% | 20.2% | 32.8% |  |
| Cc1ncc(-c2ccc3cnc(NC(=O)C(C)N4CCCCC4)nc3c2)n1C (stereo not drawn) [Compound 4576, N-(7-(1,2-Dimethyl-1H-imidazol-5-yl)quinazolin-2-yl)-2-(piperidin-1-yl) propanamide] | > 10 µM | > 10 µM | 0.675 µM | 0.346 µM | > 10 µM | > 10 µM | 0% | 22.1% | 38.3% | 35.3% |

Further lines, with some results ahead:

| EC50 [1] | EC50 (IL-6) | EC50 (DYRK1A kinase) | EC50 (GSK3β kinase) | EC50 [3] | SMILES | EC50 [2] | inhibition at 10 µM (IL-6) | inhibition at 10 µM [1] | inhibition at 10 µM [2] | inhibition at 10 µM [3] |
| --- | --- | --- | --- | --- | --- | --- | --- | --- | --- | --- |
| > 10 µM | > 10 µM | 0.071 µM | > 10 µM | > 10 µM | Cc1nnc(-c2cnc3cnc(NC(=O)c4ccnc(SC5CCN(C)CC5)c4)cc3c2)s1 [Compound 3474, N-(3-(5-Methyl-1,3,4-thiadiazol-2-yl)-1,7-naphthyridin-6-yl)-2-((1-methylpiperidin-4-yl)thio)isonicotinamide] | > 10 µM | 3.9% | 17.1% | 37% | 1.9% |
| > 10 µM | > 10 µM | 0.294 µM | > 10 µM | > 10 µM | CN1CCN(c2cc(C(=O)Nc3cc4cc(-c5ccc(N)nc5)cnc4cn3)ccn2)CC1 [Compound 3527, N-(3-(6-Aminopyridin-3-yl)-1,7-naphthyridin-6-yl)-2-(4-methylpiperazin-1-yl)isonicotinamide] | 3.5 µM | 0% | 41.8% |  | 42.5% |
| 2.83 µM | 5.05 µM | 0.487 µM | > 10 µM | 3.92 µM | O=C(Nc1cc2cc(-c3cncc(OCC4CNC4)n3)cnc2cn1)c1ccc(F)cc1 [Compound 3612, N-(3-(6-(Azetidin-3-ylmethoxy)pyrazin-2-yl)-1,7-naphthyridin-6-yl)-4-fluorobenzamide] | 3.9 µM |  |  |  |  |
| > 10 µM | > 10 µM | 1.01 µM | 1.5 µM | > 10 µM | Cn1cc(-c2cc3cc(NC(=O)C(C)(C)F)ncc3cn2)nn1 [Compound 3960, 2-Fluoro-2-methyl-N-(6-(1-methyl-1H-1,2,3-triazol-4-yl)-2,7-naphthyridin-3-yl)propanamide] | > 10 µM | 7% | 38.5% | 23.5% | 44.8% |
| 4.92 µM | > 10 µM | 0.184 µM | 0.305 µM | 0.76 µM | Cn1cc(-c2cc3cc(NC(=O)C4CCN(CC5(C(F)(F)F)CC5)CC4)ncc3cn2)nn1 [Compound 3974, N-(6-(1-Methyl-1H-1,2,3-triazol-4-yl)-2,7-naphthyridin-3-yl)-1-((1-(trifluoromethyl)cyclopropyl)methyl)piperidine-4-carboxamide] | 2.02 µM | 6.4% |  |  |  |
| 5.4 µM | > 10 µM | 0.253 µM | > 10 µM | > 10 µM | Cc1nnc(-c2cc3cc(NC(=O)c4ccnc(N5CCN(C)CC5)c4)ncc3cn2)s1 [Compound 4377, N-(6-(5-Methyl-1,3,4-thiadiazol-2-yl)-2,7-naphthyridin-3-yl)-2-(4-methylpiperazin-1-yl)isonicotinamide] | 2.96 µM | 5.7% |  |  | 28.6% |
| > 10 µM | > 10 µM | 0.035 µM | 0.543 µM | > 10 µM | Cn1cc(-c2ccc3cnc(NC(=O)[C@H]4CC[C@H](NC(=O)OC(C)(C)C)CC4)cc3n2)cn1 [Compound 4537, tert-Butyl (trans-4-((2-(1-methyl-1H-pyrazol-4-yl)-1,6-naphthyridin-7-yl)carbamoyl)cyclohexyl)carbamate] | 5.27 µM | 3% | 4.7% |  | 25.3% |
| > 10 µM | > 10 µM | 1.03 µM | > 10 µM | > 10 µM | CN1CC(COc2cncc(-c3ccc4cnc(NC(=O)c5ccc(F)cc5)cc4n3)n2)C1 [Compound 4564, 4-fluoro-N-(2-(6-((1-methylazetidin-3-yl)methoxy)pyrazin-2-yl)-1,6-naphthyridin-7-yl)benzamide] | > 10 µM | 0% | 21.1% | 26.8% | 33.3% |
